Source: US20160101048A1, “+L-CARNOSINE ZINC FORMULATIONS AND METHODS OF USE” (priority 2014, published 2016)

Tests used:
[1] = Particle size distribution of polymeric L-carnosine zinc; format: physicochemical; conditions: L-carnosine zinc used in Comparative Example 1
Procedure: Step 2) Polymeric L-carnosine zinc with a particle size range of about 0.1 micron to about 85 microns, with a particle distribution such that 90% of the particles are 24.925 microns or smaller, 50% are 5.664 microns or smaller, and 10% are 0.826 or smaller, and the mean diameter was 9.878 microns was added to the hydrogel prepared in Step 1 to produce a composite polymeric hydrogel consisting of 150 mg L-carnosine zinc suspended in 5 ml of hydrogel.

[2] = test system: ulcer tissue; conditions: chelate versus simple mixture; cited from earlier work

Substance: N-(3-aminopropionyl)-L-histidinatozinc [L-carnosine zinc]
- mean diameter [1]: 9.878 microns
- particle distribution, 10% of the particles are this size or smaller [1]: ≤ 0.826
- particle distribution, 50% of the particles are this size or smaller [1]: ≤ 5.664 microns
- particle distribution, 90% of the particles are this size or smaller [1]: ≤ 24.925 microns
- effectiveness compared with co-administration of a zinc salt together with L-carnosine [2]: more effective than the co-administration of a zinc salt together with L-carnosine in a simple mixture
